Laboratory results reported in the NIST ThermoML archive (doi:10.1021/je400487e).
± gives the expanded uncertainty stated by the source.

conditions: 298.15 K; 101.33 kPa; Liquid; Vibrating tube method

Which mass density does the source give for CCCCCCCCCC [decane] here?
The mass density was 726.43 ± 0.26 kg/m3.

Which mass density does the source give for CCCCCCCCCCCCCC [tetradecane] here?
Its mass density is 759.27 ± 0.26 kg/m3.

With C1CCCCCCC1 [cyclooctane] as the molecule, how does the mass density read?
The mass density was 831.87 ± 0.26 kg/m3.

For CC1CCCCC1 [methylcyclohexane], which mass density is on record?
Its mass density is 764.86 ± 0.26 kg/m3.

For CC(C)CC(C)(C)C [2,2,4-trimethylpentane], which mass density is on record?
The mass density was 687.77 ± 0.26 kg/m3.

Which mass density does the source give for CC(=O)N(C)C [N,N-dimethylethanamide] here?
The mass density was 936.88 ± 0.26 kg/m3.

Which mass density does the source give for CCCCCCCCCCCC [dodecane] here?
The mass density was 741.54 ± 0.26 kg/m3.
